One experiment relates to Pink1^−/− T cells. Kind of experiment: aCD3/aCD28 stimulation of Pink1-/- T cells in presence of UA. It is filed as cell-based, mice. From the text: UA activates mitophagy in myocytes and hippocampal neurons via a Pink1/Parkin mediated stress-response (D'Amico et al., 2021). […] Moreover, UA stabilized Parkin protein expression (FIG. 4G). To functionally confirm the dependence of UA induced TSCM formation on Pink1/Parkin mediated mitophagy, the inventors activated Pink1^−/− T cells in the presence or absence of UA. Loss of Pink1 prevented the UA-induced lysosome formation as well as the decrease in mitochondrial content (FIG. 4H, I).
Splenic murine T cells were isolated from mice aged 6-20 weeks by negative selection with EasySep mouse T cell isolation kit (Stem cell) according to the manufacturer's instructions. To monitor T cell proliferation, purified T cells were loaded with CellTrace Violet (C34557 ThermoFisher Scientific). T cell activation was initiated using αCD3/CD28 activation beads (11456D; ThermoFisher Scientific) at a ratio of 25 μl dynabeads per 0.5×10^6 T-cells. Cells were activated with 25-50 μM Urolithin A (Tocris) or DMSO in T cell activation Medium (RPMI (ThermoFisher Scientific) 10% FBS (South America origin), 10 mM Hepes (Sigma), 1× Non-Essential Amino Acid, 1 mM Sodium Pyruvate, 50 μM B-Mercaptoethanol, 100 U/ml penicillin, 100 μg/ml streptomycin and 2 mM Glutamax (ThermoFisher Scientific) for the indicated durations. In selected experiments, cells were stimulated in the presence of inhibitors, namely TCF1i (ICG-001; SelleckChem; 10 μM) and PGC-1αi (SR-18292, Sigma-Aldrich; 10 μm,). For subsequent analysis, activating beads were magnetically removed prior antibody staining. For human T cells, peripheral blood mononuclear cells were purified with a Ficoll-Paque (GE healthcare) gradient. T cells were enriched with EasySep Human T Cell Isolation Kit (StemCell) and activated with dynabead Human T-Activator CD3/CD28 for T Cell Expansion and Activation Kit (11131D; ThermoFisher Scientific), similar to murine T cell stimulation.
For flow cytometric analysis of mitochondria and lysosomes 500 μl of Mitotracker Red (200 nM; ThermoFisher) or Lysotracker Red DND-99 (75 nM; ThermoFisher) were applied followed by surface staining. To study changes in mitochondrial membrane potential, Mitoprobe TMRM kit (ThermoFisher) was used according to the manufacturer's instructions. Cell proliferation was assessed by CellTrace Violet (Invitrogen, C34557) at a concentration of 5 μM according to manufacturer's instructions. For human samples, cells were stained as described above with Fixable Viability Dye-eF780, αCD95-BV421 (DX2; 562616), αCD62L-PE (DREG-56; 555544), αCCR7-AF700 (150503; 561143), αCD45RO-APC (UCHL; 559865), αCD45RA-FITC (HI100; 555488), αCD8-PE-CF594 (RPA-T8; 562282) and αCD4-BV786 (OKT4; 566806) from BD.

The next experiment concerns T cells. Briefly: immunoblot, cell fractionation and immunofluorescence of stimulated T cells. In kind it is cell-based, mice. The method, then:
Activated T cells were incubated on Poly-L-lysine coated coverslips for 10 min at 37° C. and then fixed with 4% PFA for 10 min, followed by permeabilization with 0.25% Triton X-100 for 10 mins. Staining for Pgam5 was performed as previously described (Yamaguchi et al., 2019), using rabbit Anti-Pgam5 antibody (ab126534, Abcam). Immune complexes were detected with 1:200-diluted anti-rabbit IgG Alexa Fluor 488 (Thermo Fisher). Nuclei were counterstained with a DAPI-containing liquid […] mountant (ProLong™ Gold Antifade Mountant, Thermo Fisher). Mitochondria were stained with 200 nM Mitotracker Red for 45 min Image were acquired by confocal microscopy.
5×10^6 isolated T cells were stimulated on cell-culture plates coated with 1:200 α-CD3 (145-2C11; 100339; BioLegend) and α-CD28 (37.51; 102115, Biolegend) for the indicated time points. After centrifugation for 5 mins at 1500 rpm, cell pellets were resuspended in complete protein lysis buffer (50 mM Tris pH 7.5, 250 mM sodium chloride, 30 mM EDTA, 25 mM sodium pyrophosphate, 1% Triton-X 100, 0.5% NP-40, 10% glycerol and 1 mM DTT) supplemented with protease and phosphatase inhibitors (Roche). When subcellular location of Pgam5 was studied, a cell fractionation kit (Abcam, Ab109719) was used according to the manufacturer's instructions. Fractionation and whole-cell lysates were snap frozen and stored at −80° C. until further analysis. Collected lysates were mixed with 10% β-mercaptoethanol Laemmli buffer and denatured for 10 min at 70° C. Equal amounts of protein as assessed by Bradford measurement (Pierce™ Coomassie Plus (Bradford) Assay Reagent, ThermoFisher) were subjected to 10-15% SDS-PAGE, then transferred to […] PVDF membranes (MeckMillipore). Membranes were blocked for 30 mins in PBS-T/5% milk or PBST-T/5% BSA prior to antibody incubation overnight with the following antibodies: β-Actin (Sigma; #A4700), Gapdh (Santacruz; sc32233), Parkin (Santacruz; sc32283), Phospho-β-Catenin (CellSignaling; 9561), TOM20 (CellSignaling; D84TN; 42406S); pStat1 (Cellsignaling; 9167) and PGAM5 (Abcam; ab126534). Afterwards, membranes were incubated for one hour with their respective HRP-conjugated secondary antibodies (Santacruz: sc2314 and sc2313), followed by development using SuperSignal West Pico Chemoluminescence Substrate (ThermoFischer Scientific). 2D densitometry was performed using ImageJ Software (National Institutes of Health, Bethesda, Maryland).

In another experiment the test system is C. elegans. Conditions: cited from earlier work.

As to `O=c1oc2cc(O)ccc2c2ccc(O)cc12` [UA, Urolithin A], the UA-induced lysosome formation result in the experiment on Pink1^−/− T cells (Loss of Pink1, 6 h, UA 50 μM) is given as “prevented”. Moreover, the “UA-induced decrease in mitochondrial content” value in the experiment with Pink1^−/− T cells (Loss of Pink1, 48 h, UA 50 μM) is “prevented”. The “cytoplasmic expression of Pgam5” value in the experiment on Pink1^−/− T cells (Pink1-/- CD8+ T cells upon UA exposure) was “lack of cytoplasmic expression”. Further, in the experiment with Pink1^−/− T cells (Pink1-/- CD8+ T cells, 48 h, UA 50 μM), the PGC-1a result is given as “failed to enhance”. Moreover, the TSCM phenotype result with Pink1^−/− T cells (Pink1-/- CD8+ T cells, 48 h, UA 25 and 50 μM) is listed as “failed to exhibit a TSCM phenotype”. Also, in the experiment on Pink1^−/− T cells (Pink1-/-, 48 h, UA 50 μM), the “TCF-1 in CD44-CD62L+CD8+ T cells” value was “less”. Besides, the “phosphorylation of Stat1” value with T cells (UA treated T cells compared to vehicle controls) is recorded as “equal phosphorylation”. In addition, the Parkin protein expression entry in the experiment with T cells (immunoblot, 24 h, UA 50 μM) is reported as “stabilized”. Also, the b-catenin phosphorylation entry in the experiment on T cells (immunoblot, after 6 hours, UA 50 μM) was “marked decrease”. In addition, the Pgam5 localization result in the experiment with T cells (sub-cellular fractionations and immunofluorescence, 6 h, UA 50 μM) is given as “rapidly released into the cytoplasma”. In the experiment on C. elegans, the lifespan result is “prolonged lifespan” and the mitochondrial content result is “higher mitochondrial content”.

The values are drawn from patent publication US20260069693A1, “UROLITHINS AND T-CELL MEDIATED IMMUNE RESPONSE” (priority 2022, published 2026).
